Measured values as given in article PMC8643097 (British journal of pharmacology, 2021).

What was measured:
[1] = molecular target: Nav1.8 (Homo sapiens, UniProt Q9Y5Y9); type: cell-based; details: CHO-K1, read-out: % inhibition at 300 μM
[2] = molecular target: Nav1.7 (Homo sapiens, UniProt Q15858); type: cell-based
Nav1.7, sequence (Q15858 whole entry): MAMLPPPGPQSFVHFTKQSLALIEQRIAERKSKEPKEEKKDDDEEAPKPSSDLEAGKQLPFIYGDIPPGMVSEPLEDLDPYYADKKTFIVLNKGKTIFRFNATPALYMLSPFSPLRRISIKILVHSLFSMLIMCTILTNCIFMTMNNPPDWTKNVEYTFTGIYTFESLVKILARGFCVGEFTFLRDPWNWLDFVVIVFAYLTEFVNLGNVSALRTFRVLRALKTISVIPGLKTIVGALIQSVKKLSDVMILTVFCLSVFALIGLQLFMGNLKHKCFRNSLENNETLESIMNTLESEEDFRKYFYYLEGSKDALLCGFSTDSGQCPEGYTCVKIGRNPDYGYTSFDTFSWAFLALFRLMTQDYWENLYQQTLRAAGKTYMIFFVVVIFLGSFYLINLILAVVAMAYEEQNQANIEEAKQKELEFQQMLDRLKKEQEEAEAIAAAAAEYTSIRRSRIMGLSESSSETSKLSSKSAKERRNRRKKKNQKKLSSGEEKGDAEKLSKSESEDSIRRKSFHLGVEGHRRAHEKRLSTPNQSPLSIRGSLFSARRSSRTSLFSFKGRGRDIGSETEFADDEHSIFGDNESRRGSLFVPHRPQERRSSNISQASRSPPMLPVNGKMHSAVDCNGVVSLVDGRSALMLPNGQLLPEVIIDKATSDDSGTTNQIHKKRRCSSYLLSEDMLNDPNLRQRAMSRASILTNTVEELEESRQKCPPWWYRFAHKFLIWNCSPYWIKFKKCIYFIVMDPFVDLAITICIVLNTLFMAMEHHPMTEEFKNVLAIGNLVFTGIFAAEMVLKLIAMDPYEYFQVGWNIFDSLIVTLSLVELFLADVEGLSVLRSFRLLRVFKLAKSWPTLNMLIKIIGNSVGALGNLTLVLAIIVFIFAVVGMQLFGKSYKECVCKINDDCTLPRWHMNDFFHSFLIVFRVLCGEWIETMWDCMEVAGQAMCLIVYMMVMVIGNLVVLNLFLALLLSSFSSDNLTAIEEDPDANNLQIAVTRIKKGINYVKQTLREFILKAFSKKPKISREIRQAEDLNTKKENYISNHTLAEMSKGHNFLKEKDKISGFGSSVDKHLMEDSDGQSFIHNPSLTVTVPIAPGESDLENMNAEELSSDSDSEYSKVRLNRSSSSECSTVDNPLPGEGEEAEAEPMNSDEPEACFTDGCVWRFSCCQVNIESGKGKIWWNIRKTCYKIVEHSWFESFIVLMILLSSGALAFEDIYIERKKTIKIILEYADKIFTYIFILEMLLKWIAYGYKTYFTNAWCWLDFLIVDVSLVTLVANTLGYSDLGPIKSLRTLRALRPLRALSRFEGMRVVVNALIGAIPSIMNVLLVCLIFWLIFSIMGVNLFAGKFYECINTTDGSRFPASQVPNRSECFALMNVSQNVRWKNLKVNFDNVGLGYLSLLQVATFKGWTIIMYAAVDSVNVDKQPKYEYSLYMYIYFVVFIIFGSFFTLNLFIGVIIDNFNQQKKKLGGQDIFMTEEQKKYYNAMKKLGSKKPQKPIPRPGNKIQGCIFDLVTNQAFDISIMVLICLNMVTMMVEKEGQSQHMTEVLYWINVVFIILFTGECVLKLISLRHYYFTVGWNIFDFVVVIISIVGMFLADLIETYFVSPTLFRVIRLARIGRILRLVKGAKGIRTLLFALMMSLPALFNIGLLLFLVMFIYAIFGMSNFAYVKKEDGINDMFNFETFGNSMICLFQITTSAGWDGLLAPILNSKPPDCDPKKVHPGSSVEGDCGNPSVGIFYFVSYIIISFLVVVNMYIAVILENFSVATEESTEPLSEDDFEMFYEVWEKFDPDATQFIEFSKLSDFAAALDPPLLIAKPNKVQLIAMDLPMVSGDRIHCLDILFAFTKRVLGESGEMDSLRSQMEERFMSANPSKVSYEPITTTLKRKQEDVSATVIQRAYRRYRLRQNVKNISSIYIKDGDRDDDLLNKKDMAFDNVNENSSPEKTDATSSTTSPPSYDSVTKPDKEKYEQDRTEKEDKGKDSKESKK

Nav1.8, sequence (Q9Y5Y9 whole entry): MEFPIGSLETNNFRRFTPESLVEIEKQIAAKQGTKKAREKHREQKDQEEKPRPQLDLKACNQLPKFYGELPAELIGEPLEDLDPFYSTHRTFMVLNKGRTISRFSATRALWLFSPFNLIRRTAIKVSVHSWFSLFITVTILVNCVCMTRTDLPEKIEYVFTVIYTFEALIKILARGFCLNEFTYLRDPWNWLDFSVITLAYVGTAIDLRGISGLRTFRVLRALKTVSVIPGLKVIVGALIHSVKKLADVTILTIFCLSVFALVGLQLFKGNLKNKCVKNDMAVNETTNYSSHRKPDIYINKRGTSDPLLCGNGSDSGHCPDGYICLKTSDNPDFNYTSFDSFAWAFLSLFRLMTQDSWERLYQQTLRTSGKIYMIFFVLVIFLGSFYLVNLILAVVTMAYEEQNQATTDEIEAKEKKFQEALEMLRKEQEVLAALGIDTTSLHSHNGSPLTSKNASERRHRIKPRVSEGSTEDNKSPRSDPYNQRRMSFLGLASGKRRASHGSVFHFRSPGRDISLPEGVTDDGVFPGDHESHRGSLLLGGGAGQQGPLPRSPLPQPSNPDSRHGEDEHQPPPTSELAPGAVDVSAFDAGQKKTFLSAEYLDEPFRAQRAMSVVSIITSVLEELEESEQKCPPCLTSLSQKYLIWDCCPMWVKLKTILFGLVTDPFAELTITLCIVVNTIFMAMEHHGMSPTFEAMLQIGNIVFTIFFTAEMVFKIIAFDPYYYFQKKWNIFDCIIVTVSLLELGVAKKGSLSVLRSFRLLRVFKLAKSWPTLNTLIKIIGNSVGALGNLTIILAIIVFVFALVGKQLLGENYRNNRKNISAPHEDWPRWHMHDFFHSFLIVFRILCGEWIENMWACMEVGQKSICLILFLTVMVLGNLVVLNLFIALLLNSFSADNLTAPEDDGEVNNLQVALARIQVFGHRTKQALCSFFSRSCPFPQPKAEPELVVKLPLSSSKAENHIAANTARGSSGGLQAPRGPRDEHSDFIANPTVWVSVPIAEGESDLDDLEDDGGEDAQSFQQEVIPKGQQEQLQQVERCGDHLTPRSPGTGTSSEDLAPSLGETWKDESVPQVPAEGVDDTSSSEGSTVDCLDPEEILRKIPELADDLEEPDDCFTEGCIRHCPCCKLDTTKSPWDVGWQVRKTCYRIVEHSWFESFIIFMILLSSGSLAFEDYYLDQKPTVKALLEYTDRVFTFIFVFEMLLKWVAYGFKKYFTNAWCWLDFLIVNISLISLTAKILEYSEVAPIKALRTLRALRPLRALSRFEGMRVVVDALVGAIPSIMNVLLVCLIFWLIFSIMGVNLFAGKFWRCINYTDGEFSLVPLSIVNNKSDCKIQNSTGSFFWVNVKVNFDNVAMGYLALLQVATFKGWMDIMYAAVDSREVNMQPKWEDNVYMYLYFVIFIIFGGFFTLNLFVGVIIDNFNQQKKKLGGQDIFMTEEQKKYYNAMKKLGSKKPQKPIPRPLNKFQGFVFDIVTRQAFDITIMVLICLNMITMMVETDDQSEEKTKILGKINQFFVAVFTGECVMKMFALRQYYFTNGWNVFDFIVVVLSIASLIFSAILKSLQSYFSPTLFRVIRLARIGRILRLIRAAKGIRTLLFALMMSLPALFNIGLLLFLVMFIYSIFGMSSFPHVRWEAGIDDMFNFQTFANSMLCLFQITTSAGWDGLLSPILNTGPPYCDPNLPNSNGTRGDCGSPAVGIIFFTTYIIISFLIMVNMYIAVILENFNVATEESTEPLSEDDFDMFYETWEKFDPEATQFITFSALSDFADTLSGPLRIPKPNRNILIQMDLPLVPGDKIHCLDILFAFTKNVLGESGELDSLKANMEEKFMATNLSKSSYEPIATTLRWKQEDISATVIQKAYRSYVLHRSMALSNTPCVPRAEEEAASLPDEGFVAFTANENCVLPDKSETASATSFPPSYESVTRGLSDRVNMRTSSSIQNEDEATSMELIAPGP
Nav1.8, sequence (Q9NY72 23-215 partner): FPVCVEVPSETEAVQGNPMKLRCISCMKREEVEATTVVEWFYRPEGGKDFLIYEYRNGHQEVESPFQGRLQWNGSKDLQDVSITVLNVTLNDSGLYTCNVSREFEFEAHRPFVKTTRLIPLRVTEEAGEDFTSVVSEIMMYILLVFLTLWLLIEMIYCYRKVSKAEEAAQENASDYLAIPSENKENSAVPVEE

Row | Structure (SMILES) | inhibition at 300 µM [1] [%] | IC50 [2] [µM]
1 | CCC(C(=O)Nc1c(C)cccc1C)[N+]1(CC)CCCCC1 (stereo not drawn) [BW-031, 1-(1-(2,6-dimethylphenylamino)-1-oxobutan-2-yl)-1-ethylpiperidinium] | 30 ± 18 | 9.5
2 | CC[N+](CC)(CC)CC(=O)Nc1c(C)cccc1C [QX-314] |  | 66
